Source: US12064516B2, “Pharmaceutical formulations and uses thereof” (Aldeyra Therapeutics, Inc., priority 2020, dated 2024)

Tests used:
[1] = Phase 1 clinical trial, safety and tolerability (adverse events, labs, vitals, QTcF); conditions: for subjects with TEAEs, %: subjects who received I-1
Source text: (§1) This Phase 1 trial was a first-in-human, randomized, double-blind, placebo-controlled trial with a 3:1 randomization of I-1 and placebo. The trial was comprised of single ascending dose (SAD) and multiple ascending dose (MAD) protocols. MAD drug exposure was 10 days of twice-per-day (BID) administration.
(§2) A total of 54 healthy volunteers were randomized across two cohorts of varying doses: 41 subjects received I-1 and 13 subjects received placebo.
(§3) Thirty-one (31) subjects were randomized to varying doses: 23 subjects received I-1 and 8 subjects received placebo.

malondialdehyde (MDA) = test: Plasma malondialdehyde (MDA) in Phase 1 subjects administered I-1 orally; type: in vivo, human; conditions: healthy volunteers
[2] = human, in vivo, 10 days
Source text: as §1, §2, §3

[3] = Pharmacokinetic comparison of ADX-102 (reproxalap) and compound I-1 in rats; type: in vivo, Sprague-Dawley rats
Method: Compound I-1 is the des-chloro analog of ADX-102. […] We have therefore investigated compound I-1 in 90-day toxicology studies in rat and dog as well as 10-day studies in man. We compared two data sets to contrast the pharmacokinetics of the two test articles. A 50 mg/kg oral dose PK study of compound I-1 was conducted in Sprague-Dawley rats using methylcellulose suspension. […] Both studies also incorporated intravenous administration in captisol for the calculation of clearance and steady state volume of distribution.
Both studies were dosed by oral gavage. Bioanalysis was conducted using LC-MS/MS. Further details of the experimental approach can be found in the individual reports.

[4] = Phase 1 clinical trial, single ascending dose (SAD) pharmacokinetics; type: in vivo, human; conditions: healthy volunteers; for AUC(0-inf) / Cmax / half-life: human, in vivo, po
Source text: Pharmacokinetic data are presented below.

[5] = Pharmacokinetic comparison of ADX-102 (reproxalap) and compound I-1 in rats; type: in vivo, Sprague-Dawley rats; conditions: Sprague-Dawley, in vivo, SD Rat
[6] = Tolerability as a systemic dose, I-1 versus ADX-102; type: in vivo
Method: Compound I-1 is the des-chloro analog of ADX-102. […] We have therefore investigated compound I-1 in 90-day toxicology studies in rat and dog as well as 10-day studies in man. We compared two data sets to contrast the pharmacokinetics of the two test articles. A 50 mg/kg oral dose PK study of compound I-1 was conducted in Sprague-Dawley rats using methylcellulose suspension. A pharmacokinetic study of ADX-102 was also conducted in Sprague Dawley rats at a dose of 10 mg/kg in a methylcellulose suspension that also contained Tween 80. Both studies also incorporated intravenous administration in captisol for the calculation of clearance and steady state volume of distribution.

[7] = Phase 1 clinical trial, multiple ascending dose (MAD) pharmacokinetics; type: in vivo, human; conditions: for Cmax / half-life / AUC(0-t): human, in vivo; for AUC(0-t): read-out: Mean AUC0-12
Source text: PK data are presented below.

[8] = SD Rat, oral gavage 50 mg/kg, 0.5% MC
[9] = Sprague-Dawley, in vivo, SD Rat, oral gavage 50 mg/kg, 0.5% MC
[10] = 100 mg, oral single dose 100 mg
[11] = 200 mg, oral single dose 200 mg
[12] = 400 mg, oral single dose 400 mg
[13] = 700 mg, oral single dose 700 mg
[14] = 1200 mg, oral single dose 1200 mg

SMILES: CC(C)(O)c1nc2ccccc2cc1N [I-1]
- intensity and relatedness of TEAEs ([1]; MAD): mild and deemed not to be related to the study drug
- subjects with TEAEs, % ([1]; MAD): 17.4%
- Pruritis, % of subjects ([1]; MAD, I-1 50 mg BID): (16.7%)
- Pruritis, N subjects ([1]; MAD, I-1 50 mg BID): 1
- Rhinitis, N subjects ([1]; MAD, I-1 50 mg BID): 0
- URTI, N subjects ([1]; MAD, I-1 50 mg BID): 0
- Headache, N subjects ([1]; MAD, I-1 150 mg BID): 0
- Ligament sprain, N subjects ([1]; MAD, I-1 150 mg BID): 0
- Muscle spasms, N subjects ([1]; MAD, I-1 150 mg BID): 0
- Nasal congestion, % of subjects ([1]; MAD, I-1 150 mg BID): (16.7%)
- Nasal congestion, N subjects ([1]; MAD, I-1 150 mg BID): 1
- Pruritis, N subjects ([1]; MAD, I-1 150 mg BID): 0
- Rhinitis, N subjects ([1]; MAD, I-1 150 mg BID): 0
- URTI, N subjects ([1]; MAD, I-1 150 mg BID): 0
- Headache, N subjects ([1]; MAD, I-1 350 mg BID): 0
- Ligament sprain, N subjects ([1]; MAD, I-1 350 mg BID): 0
- Muscle spasms, N subjects ([1]; MAD, I-1 350 mg BID): 0
- Nasal congestion, N subjects ([1]; MAD, I-1 350 mg BID): 0
- Pruritis, N subjects ([1]; MAD, I-1 350 mg BID): 0
- URTI, % of subjects ([1]; MAD, I-1 350 mg BID): (20.0%)
- URTI, N subjects ([1]; MAD, I-1 350 mg BID): 1
- Headache, N subjects ([1]; MAD, I-1 600 mg BID): 0
- Ligament sprain, N subjects ([1]; MAD, I-1 600 mg BID): 0
- Muscle spasms, N subjects ([1]; MAD, I-1 600 mg BID): 0
- Nasal congestion, N subjects ([1]; MAD, I-1 600 mg BID): 0
- Pruritis, N subjects ([1]; MAD, I-1 600 mg BID): 0
- Rhinitis, % of subjects ([1]; MAD, I-1 600 mg BID): (16.7%)
- Rhinitis, N subjects ([1]; MAD, I-1 600 mg BID): 1
- URTI, N subjects ([1]; MAD, I-1 600 mg BID): 0
- Headache, N subjects ([1]; MAD, I-1 Total): 0
- Ligament sprain, N subjects ([1]; MAD, I-1 Total): 0
- Muscle spasms, N subjects ([1]; MAD, I-1 Total): 0
- Nasal congestion, % of subjects ([1]; MAD, I-1 Total): (4.3%)
- Nasal congestion, N subjects ([1]; MAD, I-1 Total): 1
- Pruritis, % of subjects ([1]; MAD, I-1 Total): (4.3%)
- Pruritis, N subjects ([1]; MAD, I-1 Total): 1
- Rhinitis, % of subjects ([1]; MAD, I-1 Total): (4.3%)
- Rhinitis, N subjects ([1]; MAD, I-1 Total): 1
- URTI, % of subjects ([1]; MAD, I-1 Total): (4.3%)
- URTI, N subjects ([1]; MAD, I-1 Total): 1
- QTcF prolongation ([1]; Phase 1): did not lead to QTcF prolongation
- changes in heart rate, blood pressure, respiratory rate, pulse oximetry, temperature ([1]; Phase 1): No clinically meaningful changes
- changes in hepatic or renal analytes (ALT, AST, ALP, amylase, GGT, bilirubin, creatinine kinase, creatinine) ([1]; Phase 1): No clinically meaningful changes
- changes in serum glucose ([1]; Phase 1): No changes
- hematological changes ([1]; Phase 1): No clinically significant hematological changes
- subjects with QTcF ≥500 msec or a change of ≥60 msec from baseline ([1]; Phase 1): no subjects
- subjects with QTcF change of >30 msec from baseline ([1]; Phase 1, three in SAD, two in MAD): Five
- interruptions or discontinuations of study drug administration ([1]; Phase 1 SAD and MAD): no interruptions or discontinuations
- overall safety and tolerability ([1]; Phase 1 SAD and MAD): safe and tolerable
- TEAE description ([1]; SAD, one subject in 100 mg dose cohort): syncope lasting less than a minute, moderate in intensity and deemed to be related to the study drug
- TEAE description ([1]; SAD, one subject, single dose of 700 mg): sinus congestion, mild in intensity and deemed not to be related to I-1
- subjects with TEAEs, % ([1]; SAD): 3.7%
- subjects with treatment emergent adverse events (TEAEs), % ([1]; all subjects receiving I-1 (SAD and MAD)): 9.4%
- free MDA levels in plasma (malondialdehyde (MDA)): decrease in free MDA levels
- Influenza like illness, N subjects [2]: 0
- AUC 0-inf/Dose [3, 8]: 153
- AUC 0-t/Dose [3, 8]: 146
- Vd ([3]; Sprague-Dawley, in vivo, SD Rat, intravenous data using captisol formulation, read-out: Vss): 3.13 L/kg
- AUC(0-inf) [3, 9]: 7670 ng·h/mL
- AUC(0-t) [3, 9]: 7300 ng·h/mL
- Cmax [3, 9]: 4990 ng/mL
- Tmax [3, 9]: 0.32 h
- dose-normalized AUC relative to ADX-102 ([3]; rats, oral, I-1 50 mg/kg vs ADX-102 10 mg/kg): approximately double
- AUCinf ([4]; oral single dose 20 mg): 50.0 ng·h/mL
- AUCinf ([4]; oral single dose 50 mg): 156 ng·h/mL
- AUCinf ([4]; oral single dose 100 mg): 433 ng·h/mL
- AUCinf ([4]; oral single dose 200 mg): 1140 ng·h/mL
- AUCinf ([4]; oral single dose 400 mg): 2730 ng·h/mL
- AUCinf ([4]; oral single dose 700 mg): 6710 ng·h/mL
- AUCinf ([4]; oral single dose 1200 mg): 14500 ng·h/mL
- AUC(0-inf) ([4]; 20 mg, oral single dose 20 mg): ~50 ng·h/mL
- Cmax ([4]; 20 mg, oral single dose 20 mg): ~26.4 ng/mL
- AUC(0-inf) ([4]; 50 mg, oral single dose 50 mg): ~156 ng·h/mL
- Cmax ([4]; 50 mg, oral single dose 50 mg): ~56.7 ng/mL
- AUC(0-inf) [4, 10]: ~433 ng·h/mL
- Cmax [4, 10]: ~140 ng/mL
- half-life [4, 10]: 3.52 h
- AUC(0-inf) [4, 11]: ~1140 ng·h/mL
- Cmax [4, 11]: ~459 ng/mL
- half-life [4, 11]: 6.04 h
- AUC(0-inf) [4, 12]: ~2730 ng·h/mL
- Cmax [4, 12]: ~869 ng/mL
- half-life [4, 12]: 6.15 h
- AUC(0-inf) [4, 13]: ~6710 ng·h/mL
- Cmax [4, 13]: ~2020 ng/mL
- half-life [4, 13]: 7.33 h
- AUC(0-inf) [4, 14]: ~14500 ng·h/mL
- Cmax [4, 14]: ~4220 ng/mL
- half-life [4, 14]: 7.69 h
- clearance ([5]; intravenous data using captisol formulation): 65.8 mL/min/kg
- half-life ([5]; oral gavage 50 mg/kg, 0.5% MC): 2.96 h
- tolerability as a systemic dose compared with ADX-102 [6]: generally better tolerated than ADX-102
- accumulation of the drug ([7]; across all cohorts): Little to no accumulation
- relation of Cmax and AUC to dose ([7]; as dose increased, Phase 1 cohorts): linear correlation
- Cmax ([7]; oral, 600 mg, top dose 600 mg BID, read-out: Cmax expressed as molar concentration): ~8.5 µM
- half-life ([7]; oral, multiple day exposures, across cohorts and days, read-out: half-life (t1/2), range of mean values): 3.49 to 6.83 h
- AUC(0-t) ([7]; po, 50 mg, oral 50 mg BID, Day 1): ~148 ng·h/mL
- Cmax ([7]; po, 50 mg, oral 50 mg BID, Day 1, read-out: Mean Cmax): ~70.2 ng/mL
- half-life ([7]; po, 50 mg, oral 50 mg BID, Day 1, read-out: Mean t1/2 (converted)): ~3.49 h
- AUC(0-t) ([7]; po, 50 mg, oral 50 mg BID, Day 10): 252 ng·h/mL
- Cmax ([7]; po, 50 mg, oral 50 mg BID, Day 10, read-out: Mean Cmax): 85.9 ng/mL
- half-life ([7]; po, 50 mg, oral 50 mg BID, Day 10, read-out: Mean t1/2 (converted)): 5.25 h
- AUC(0-t) ([7]; po, 150 mg, oral 150 mg BID, Day 1): ~809 ng·h/mL
- Cmax ([7]; po, 150 mg, oral 150 mg BID, Day 1, read-out: Mean Cmax): ~343 ng/mL
- half-life ([7]; po, 150 mg, oral 150 mg BID, Day 1, read-out: Mean t1/2 (converted)): ~4.86 h
- AUC(0-t) ([7]; po, 150 mg, oral 150 mg BID, Day 10): 1170 ng·h/mL
- Cmax ([7]; po, 150 mg, oral 150 mg BID, Day 10, read-out: Mean Cmax): 320 ng/mL
- half-life ([7]; po, 150 mg, oral 150 mg BID, Day 10, read-out: Mean t1/2 (converted)): 6.34 h
- AUC(0-t) ([7]; po, 350 mg, oral 350 mg BID, Day 1): ~2950 ng·h/mL
- Cmax ([7]; po, 350 mg, oral 350 mg BID, Day 1, read-out: Mean Cmax): ~1190 ng/mL
- half-life ([7]; po, 350 mg, oral 350 mg BID, Day 1, read-out: Mean t1/2 (converted)): ~5.67 h
- AUC(0-t) ([7]; po, 350 mg, oral 350 mg BID, Day 10): 4340 ng·h/mL
- Cmax ([7]; po, 350 mg, oral 350 mg BID, Day 10, read-out: Mean Cmax): 1230 ng/mL
- half-life ([7]; po, 350 mg, oral 350 mg BID, Day 10, read-out: Mean t1/2 (converted)): 6.83 h
- AUC(0-t) ([7]; po, 600 mg, oral 600 mg BID, Day 1): ~6450 ng·h/mL
- Cmax ([7]; po, 600 mg, oral 600 mg BID, Day 1, read-out: Mean Cmax): ~2230 ng/mL
- half-life ([7]; po, 600 mg, oral 600 mg BID, Day 1, read-out: Mean t1/2 (converted)): ~4.15 h
- AUC(0-t) ([7]; po, 600 mg, oral 600 mg BID, Day 10): 7220 ng·h/mL
- Cmax ([7]; po, 600 mg, oral 600 mg BID, Day 10, read-out: Mean Cmax): 1700 ng/mL
- half-life ([7]; po, 600 mg, oral 600 mg BID, Day 10, read-out: Mean t1/2 (converted)): 4.66 h
- Mean AUC0-12 ([7]; oral 50 mg BID, Day 1): 148 ng·h/mL
- Mean AUC0-12 ([7]; oral 50 mg BID, Day 10): ~252 ng·h/mL
- Mean AUC0-12 ([7]; oral 150 mg BID, Day 1): 809 ng·h/mL
- Mean AUC0-12 ([7]; oral 150 mg BID, Day 10): ~1170 ng·h/mL
- Mean AUC0-12 ([7]; oral 350 mg BID, Day 1): 2950 ng·h/mL
- Mean AUC0-12 ([7]; oral 350 mg BID, Day 10): ~4340 ng·h/mL
- Mean AUC0-12 ([7]; oral 600 mg BID, Day 1): 6450 ng·h/mL
- Mean AUC0-12 ([7]; oral 600 mg BID, Day 10): ~7220 ng·h/mL
